Columns and labels:
HIV-1 RT mutant D67E = test: single round infection assay, D67E; assay type: cell-based; settings: for IC50: ± SD, n=4
[1] = tested on: HIV-1 RT mutant K101E/M184I; test: single round infection assay, K101E/M184I; assay type: cell-based; settings: K101E/M184I vs WT
Protocol: The human osteosarcoma cell line, HOS, was obtained from Dr. Richard Schwartz (Michigan State University, East Lansing, MI) and grown in Dulbecco’s modified Eagle’s medium (Invitrogen, Carlsbad, CA) supplemented with 5 % (v/v) fetal bovine serum, 5 % newborn calf serum, and penicillin (50 units/ml) plus streptomycin (50 µg/ml; Quality Biological, Gaithersburg, MD). Virion production and single-round infectivity assays were used to determine antiviral activity (IC50 values) of the compounds as previously described.
pNLNgoMIVR-ΔEnv.LUC has been described previously. The RT open reading frame was removed from pNLNgoMIVR-ΔEnv.LUC (digestion with SpeI and SalI) and inserted between the SpeI and SalI sites of pBluescript II KS+. Using that construct as the wild-type template, we prepared the following HIV-1 RT mutants using the QuikChange II XL (Stratagene, La Jolla, CA) site-directed mutagenesis protocol kit: L100I, K103N, Y181C, Y188L, H221Y, K103N/Y181C, G190A, G190S, M230L, P236L, L100I/K103N, K103N/P225H, V106A/G190A/F227L, V106A, L234I, V106A/F227L, V106A/L234I, V106A/F227L/L234I, E40K, D67E, K101E, V111A, E138K, M184I, M184V, K101E/M184I, K101E/M184V, E138K/M184I, E138K/M184V, K101P, Y181I, and K101P/V179I. The following sense oligonucleotides were used with matching cognate antisense oligonucleotides (not shown) (Integrated DNA Technologies, Coralville, IA) in the mutagenesis: L100I, 5′-[…]-3′; L100I 2-103, 5′-[…]-3′; K103N, 5′-[…]-3′; Y181C, 5′-[…]-3′; Y188L, 5′-[…]-3′; H221Y, 5′-[…]-3′; G190A, 5′-[…]-3′; G190S, 5′-[…]-3′; P225H, 5′-[…]-3′; F227, 5′-[…]-3′; M230L, 5′-[…]-3′; P236L, 5′-[…]-3′; V106A, 5′-[…]-3′; L234I, 5′-[…]-3′; E40K, 5′-[…]-3′; D67E, 5′-[…]-3′; K101E, 5′-[…]-3′; V111A, 5′-[…]-3′; E138K, 5′-[…]-3′; M184I, 5′-[…]-3′; M184V, 5′-[…]-3′; K101P, 5′-[…]-3′; Y181I, 5′-[…]-3′; K101P/V179I, 5′-[…]-3′. The double mutants K103N/Y181C, K103N/P225H, and L100I/K103N were made using the previously generated K103N mutant and the appropriate oligonucleotides to add the second mutation, Y181C, P225, and L100I respectively. The double mutants V106A/F227L and V106A/L234I were prepared using the previously generated V106A mutant and the appropriate oligonucleotides to add the second mutation, F227L and L234I, respectively. The double mutants K101E/M184I and K101E/M184V were constructed using the previously generated K101E mutant and the appropriate oligonucleotides to add the second mutation, M184I and M184V, respectively. The double mutants E138K/M184I and E138K/M184V were constructed using the previously generated E138K mutant and the appropriate oligonucleotides for the second mutation, M184I and M184V, respectively. The triple mutant V106A/F227L/L234I was made using the previously generated V106A/F227L double mutant and the appropriate oligonucleotides for the third mutation, L234I. The triple mutant V106A/G190A/F227L was constructed in a series of steps using the previously generated V106A mutant and the appropriate oligonucleotides for the second mutation, G190A, to generate the double mutant V106A/G190A, and then the triple mutant was made using double mutant V106A/G190A and oligonucleotides for the third mutation, F227L. The DNA sequence of each construct was verified by DNA sequence determination. The sequences encoding the mutant RTs were then subcloned into pNLNgoMIVR-ΔEnv.LUC (between the KpnI and SalI sites) to produce the mutant HIV-1 constructs. These DNA sequences were also checked independently by DNA sequence determination.
10.1186/s12977-016-0244-2 The IC50 values (nM) of RPV and the RPV analogs were determined against the NNRTI resistant mutants were measured by using a single round infection assay, n = 4. The concentrations (nM) are measured by reductions in luciferase reporter activity followed by the standard deviations. […]

HIV-1 RT mutant M230L = test: single round infection assay, M230L; assay type: cell-based; settings: M230L vs WT
HIV-1 RT mutant K103N = tested on: HIV-1 RT mutant K103N; parameters: method as in PMID 23217210; settings: previous study; cited from earlier work
HIV-1 RT mutant H221Y = tested on: HIV-1 RT mutant H221Y; parameters: method as in PMID 23217210; settings: previous study; cited from earlier work
HIV-1 RT mutant L100I = tested on: HIV-1 RT mutant L100I; parameters: method as in PMID 23217210; settings: previous study; cited from earlier work
WT HIV-1 = test: single round infection luciferase assay, WT HIV-1; assay type: cell-based; settings: Human immunodeficiency virus 1
[2] = tested on: HIV-1 RT mutant K101P/V179I; test: single round infection assay, K101P/V179I; assay type: cell-based; settings: Human immunodeficiency virus 1
[3] = tested on: HIV-1 RT mutant V106A/G190A/F227L; test: single round infection assay, V106A/G190A/F227L; assay type: cell-based
HIV-1 RT mutant Y181I = test: single round infection assay, Y181I; assay type: cell-based
[4] = tested on: HIV-1 RT mutant V106A/F227L; test: single round infection assay, V106A/F227L; assay type: cell-based; settings: V106A/F227L vs WT
[5] = tested on: HIV-1 RT mutant E138K/M184I; test: single round infection assay, E138K/M184I; assay type: cell-based; settings: E138K/M184I vs WT
HIV-1 RT mutant K101P = test: single round infection assay, K101P; assay type: cell-based; settings: Human immunodeficiency virus 1
HIV-1 RT mutant P236L = test: single round infection assay, P236L; assay type: cell-based

## COc1ccc(Nc2nc(Nc3c(C)cc(/C=C/C#N)cc3C)nc3[nH]cnc23)cc1 [compound 16]
HIV-1 RT mutant D67E; D67E vs WT
  fold-change of IC50 of the mutant relative to WT: 16
HIV-1 RT mutant D67E; D67E
  IC50: 2.7 ± 0.8 nM
HIV-1 RT mutant D67E; Human immunodeficiency virus 1, D67E
  IC50: < 2.5 nM
[1]
  fold-change of IC50 of the mutant relative to WT: < 2
HIV-1 RT mutant M230L
  fold-change of IC50 of the mutant relative to WT: 15
HIV-1 RT mutant K103N
  IC50: < 7 nM
HIV-1 RT mutant H221Y
  IC50: < 7 nM
HIV-1 RT mutant L100I
  IC50: < 7 nM
WT HIV-1
  IC50: 0.17 ± 0.01 nM
[2]
  IC50: > 100 nM
[3]; Human immunodeficiency virus 1
  IC50: 1.7 ± 0.2 nM
[3]; V106A/G190A/F227L vs WT
  fold-change of IC50 of the mutant relative to WT: 10
HIV-1 RT mutant Y181I; Human immunodeficiency virus 1
  IC50: 63.2 nM
HIV-1 RT mutant Y181I; Y181I vs WT
  fold-change of IC50 of the mutant relative to WT: 372
[4]
  fold-change of IC50 of the mutant relative to WT: 4
[5]
  fold-change of IC50 of the mutant relative to WT: 5
HIV-1 RT mutant K101P
  IC50: > 100 nM
HIV-1 RT mutant P236L; Human immunodeficiency virus 1
  IC50: 0.2 nM
HIV-1 RT mutant P236L; P236L vs WT
  fold-change of IC50 of the mutant relative to WT: < 2

— article PMC4754833, “Rilpivirine analogs potently inhibit drug-resistant HIV-1 mutants” (Retrovirology, 2016)
